The nature of assay [1]: viability of uninfected HEp-2 cells – cell-based, HTS, cytotoxicity control for RSV inhibitor project, dose response (AID 2410). Conditions: human respiratory syncytial virus. The class given is functional.
Assay [2] deals with Lysosomal acid glucosylceramidase (Homo sapiens, UniProt P04062). The assay can be described thus: Dose response cell-based high throughput screening assay to identify enhancers of beta-glucosidase activity. [Related pubchem assays: 784 ]. The class given is functional.
Chain of Lysosomal acid glucosylceramidase (P04062 whole entry): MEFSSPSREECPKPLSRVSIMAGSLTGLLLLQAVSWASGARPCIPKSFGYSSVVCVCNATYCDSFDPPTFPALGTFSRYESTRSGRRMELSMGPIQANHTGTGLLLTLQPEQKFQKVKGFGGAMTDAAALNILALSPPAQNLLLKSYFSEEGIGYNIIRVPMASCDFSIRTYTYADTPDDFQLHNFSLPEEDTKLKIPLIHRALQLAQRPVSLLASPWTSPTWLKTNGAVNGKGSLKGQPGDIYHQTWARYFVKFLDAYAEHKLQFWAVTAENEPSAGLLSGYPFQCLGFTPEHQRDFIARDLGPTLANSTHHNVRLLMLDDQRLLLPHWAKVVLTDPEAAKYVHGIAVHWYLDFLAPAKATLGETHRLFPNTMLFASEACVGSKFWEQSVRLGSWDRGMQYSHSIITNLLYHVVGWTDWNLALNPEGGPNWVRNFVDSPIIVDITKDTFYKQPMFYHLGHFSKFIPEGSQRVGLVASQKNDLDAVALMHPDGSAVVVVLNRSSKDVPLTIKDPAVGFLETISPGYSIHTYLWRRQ
In assay [3] the target is T1, Neuropeptides B/W receptor type 1 (Homo sapiens, UniProt P48145).
T1 sequence (P48145 whole entry): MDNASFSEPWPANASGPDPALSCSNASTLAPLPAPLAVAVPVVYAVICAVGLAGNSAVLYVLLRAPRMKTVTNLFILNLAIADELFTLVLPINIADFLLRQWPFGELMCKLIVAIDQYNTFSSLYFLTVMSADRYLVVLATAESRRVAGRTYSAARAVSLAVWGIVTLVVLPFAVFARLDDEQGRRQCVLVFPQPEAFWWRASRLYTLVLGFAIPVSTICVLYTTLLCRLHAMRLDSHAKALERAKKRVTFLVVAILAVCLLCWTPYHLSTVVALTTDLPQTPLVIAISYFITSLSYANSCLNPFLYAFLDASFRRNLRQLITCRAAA
Kind of assay: Fluorescence-based dose response cell-based high throughput screening assay to identify antagonists of the G-protein coupled receptor 7 (GPR7). [Related pubchem assays: 1952 (Screening assay (GPR7 antagonists).), 1880 (Summary AID.)]. Type of assay: functional.

For assay [4], the target named is Melanin-concentrating hormone receptor 1 (Homo sapiens, UniProt Q99705). The assay can be described thus: Fluorescence-based counterscreen for antagonists of the G-protein coupled receptor 7 (GPR7): cell-based high throughput dose response assay to identify antagonists of the melanin-concentrating hormone receptor 1 (MCHR1). The class given is functional.
Chain of Melanin-concentrating hormone receptor 1 (Q99705 whole entry): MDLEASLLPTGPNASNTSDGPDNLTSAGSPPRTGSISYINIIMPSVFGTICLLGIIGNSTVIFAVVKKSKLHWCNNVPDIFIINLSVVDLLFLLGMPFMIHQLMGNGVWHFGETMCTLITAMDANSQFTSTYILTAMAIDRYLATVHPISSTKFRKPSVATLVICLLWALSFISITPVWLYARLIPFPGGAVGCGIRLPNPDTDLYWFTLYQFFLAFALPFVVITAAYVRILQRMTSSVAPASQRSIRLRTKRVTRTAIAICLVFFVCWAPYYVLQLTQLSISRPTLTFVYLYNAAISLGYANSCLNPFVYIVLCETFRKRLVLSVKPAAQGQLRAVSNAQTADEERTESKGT
Assay [5] has as its target T2, Heat shock 70 kDa protein 1A (Homo sapiens, UniProt P0DMV8). Kind of assay: small molecules displacing fluorescent ligand from Hsp70 – biochemical, fluorescence polarization, primary screen (AID 583). On the technique in general: Polarisation of emitted light reports the rotation of a fluorescent probe.
Assay [6] concerns the target T2, Heat shock 70 kDa protein 1A. Kind of assay: small-molecule inhibition of Hsp70 – biochemical, TR-FRET (AID 786). (TR-FRET usually uses a lanthanide donor and a delayed reading to cut background.)
Another assay concerns HT-1080. The assay can be described thus: HT1080 cell viability loss – fluorescence readout (AID 620). The class given is functional, cell-based. Conditions: Homo sapiens.
Assay [7] deals with T3, Luciferin 4-monooxygenase (Photinus pyralis, UniProt P08659). Kind of assay: Counter Screen for Luciferase-based Assay Positives. [Related pubchem assays: 620, 618, 411 ]. In general terms: Counterscreens check selectivity or assay interference.
T3 sequence (P08659 whole entry): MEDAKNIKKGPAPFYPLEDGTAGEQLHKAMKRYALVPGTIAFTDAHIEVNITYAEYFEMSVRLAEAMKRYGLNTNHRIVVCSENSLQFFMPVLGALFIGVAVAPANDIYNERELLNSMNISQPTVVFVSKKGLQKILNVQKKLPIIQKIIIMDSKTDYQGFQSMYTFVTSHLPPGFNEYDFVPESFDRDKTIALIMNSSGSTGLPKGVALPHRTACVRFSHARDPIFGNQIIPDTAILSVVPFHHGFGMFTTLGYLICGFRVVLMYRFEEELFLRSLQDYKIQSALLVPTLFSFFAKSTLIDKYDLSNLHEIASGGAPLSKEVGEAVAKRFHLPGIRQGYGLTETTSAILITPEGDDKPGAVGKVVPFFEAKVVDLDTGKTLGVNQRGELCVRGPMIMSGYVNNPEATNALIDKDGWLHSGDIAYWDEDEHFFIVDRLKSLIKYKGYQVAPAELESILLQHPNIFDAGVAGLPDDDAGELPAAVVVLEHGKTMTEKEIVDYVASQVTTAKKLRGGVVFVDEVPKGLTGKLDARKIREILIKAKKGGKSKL
Assay [8] is described as follows: cells.
A further assay concerns Vero. Kind of assay: cells. Conditions: Chlorocebus sabaeus. The class given is functional, cell-based.
Assay [9] is described as follows: alpha-synuclein stem-loop luciferase translation blockers – H4 neuroglioma cells, luminescence, confirmation (AID 1988). The class given is functional, cell-based.
Assay [10] is described as follows: Luminescence Cell-Based Dose Response HTS to Identify Inhibitors of 5'UTR Stem-Loop Driven Prion Protein mRNA Translation in H4 Neuroglioblastoma Cells. [Related pubchem assays: 1827 (Project Summary), 1813 (Primary HTS)]. The class given is functional.
In assay [11] the target is Intestinal-type alkaline phosphatase (Homo sapiens, UniProt P09923). Kind of assay: Dose Response confirmation of uHTS hits from a small molecule inhibitors of human intestinal alkaline phosphatase via a luminescent assay. [Related pubchem assays (depositor defined):AID2544, AID2574]. Type of assay: functional.
Chain of Intestinal-type alkaline phosphatase (P09923 whole entry): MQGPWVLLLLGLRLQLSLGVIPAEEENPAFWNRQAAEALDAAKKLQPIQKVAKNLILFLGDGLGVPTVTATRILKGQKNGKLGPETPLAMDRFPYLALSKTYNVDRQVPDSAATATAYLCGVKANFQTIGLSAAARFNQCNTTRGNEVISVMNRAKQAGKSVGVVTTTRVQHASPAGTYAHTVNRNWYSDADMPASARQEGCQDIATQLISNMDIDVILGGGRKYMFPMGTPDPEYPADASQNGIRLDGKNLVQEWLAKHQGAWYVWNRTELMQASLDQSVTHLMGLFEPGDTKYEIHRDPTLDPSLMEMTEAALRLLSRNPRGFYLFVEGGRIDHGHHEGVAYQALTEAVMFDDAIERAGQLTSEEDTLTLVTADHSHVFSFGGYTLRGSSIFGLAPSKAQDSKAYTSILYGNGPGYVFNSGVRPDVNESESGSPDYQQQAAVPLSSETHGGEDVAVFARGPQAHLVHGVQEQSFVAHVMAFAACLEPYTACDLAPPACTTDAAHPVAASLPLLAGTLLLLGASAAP
Assay [12] has as its target Acyl-homoserine lactone acylase PvdQ (Pseudomonas aeruginosa (strain LESB58), UniProt Q9I194). The assay can be described thus: PvdQ acylase enzyme activity blockers – biochemical, fluorescence, plate reader and imaging, cherry-picks, dose response (AID 493231).
For assay [13], the target named is T4, Mannose-6-phosphate isomerase (Homo sapiens, UniProt P34949).
T4 sequence (P34949 whole entry): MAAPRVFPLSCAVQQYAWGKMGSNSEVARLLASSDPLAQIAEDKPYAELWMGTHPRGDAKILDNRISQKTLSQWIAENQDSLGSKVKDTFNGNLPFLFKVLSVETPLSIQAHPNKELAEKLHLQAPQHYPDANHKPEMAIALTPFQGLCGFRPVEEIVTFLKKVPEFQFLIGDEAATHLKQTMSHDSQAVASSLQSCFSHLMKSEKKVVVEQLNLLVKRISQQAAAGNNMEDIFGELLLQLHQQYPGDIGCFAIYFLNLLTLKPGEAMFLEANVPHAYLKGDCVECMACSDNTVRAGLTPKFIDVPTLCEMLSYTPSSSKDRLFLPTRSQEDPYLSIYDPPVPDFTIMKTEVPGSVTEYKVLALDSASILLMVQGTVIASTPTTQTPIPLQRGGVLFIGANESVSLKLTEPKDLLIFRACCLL
Kind of assay: MPI enzyme activity inhibition – biochemical, fluorescence intensity, coupled assay, primary screen (AID 1209).

In the next assay the target is T5, Leucine aminopeptidase (Plasmodium falciparum 3D7, UniProt Q8IL11).
T5 sequence (Q8IL11 whole entry): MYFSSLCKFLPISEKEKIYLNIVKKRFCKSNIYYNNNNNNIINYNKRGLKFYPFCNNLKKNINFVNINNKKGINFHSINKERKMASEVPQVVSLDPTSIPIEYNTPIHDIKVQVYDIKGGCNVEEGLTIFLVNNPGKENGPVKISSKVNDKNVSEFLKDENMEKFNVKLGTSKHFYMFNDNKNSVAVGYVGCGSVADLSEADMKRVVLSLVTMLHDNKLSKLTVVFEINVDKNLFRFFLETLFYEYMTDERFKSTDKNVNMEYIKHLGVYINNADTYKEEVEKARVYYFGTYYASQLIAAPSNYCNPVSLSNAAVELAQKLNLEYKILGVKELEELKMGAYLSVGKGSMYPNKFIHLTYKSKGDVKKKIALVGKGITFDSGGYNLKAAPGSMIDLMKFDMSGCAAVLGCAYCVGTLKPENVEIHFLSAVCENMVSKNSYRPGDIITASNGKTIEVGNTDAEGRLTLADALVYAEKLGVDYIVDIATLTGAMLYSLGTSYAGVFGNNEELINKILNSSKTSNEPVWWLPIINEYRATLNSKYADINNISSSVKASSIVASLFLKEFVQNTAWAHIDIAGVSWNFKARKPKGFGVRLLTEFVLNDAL
The assay can be described thus: P. falciparum M17LAP inhibitors, primary screen, biochemical, fluorogenic H-Leu-NHMec substrate, 1536-well (AID 1619). Type of assay: functional.

Assay [14] in a line: viability of PTEN-deleted HCT116 cells – cell-based, HCT116 PTEN knockout, dose response (AID 1047).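 Note: HCT116 colon tumor cells with PTEN knocked out; cells exposed to compound for 60 hours before readout; potency for loss of cell viability measured by luminescence.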 The class given is functional.
Assay [15] can be described thus: viability of HCT116 lacking mutant beta-catenin – cell-based, human colon tumor, dose response (AID 1045).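 Note: HCT116 colon tumor cells with beta catenin knocked out; cells exposed to compound for 60 hours.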 Type of assay: functional.
The nature of assay [16]: A Cell Based Secondary Assay To Explore Cytotoxicity of Compounds that Sensitize Mycobacterium Tuberculosis to Beta-Lactam Antibiotics. The class given is functional.
The nature of assay [17]: luciferase reporter signal reduction – luminescence, H4-C neuroglioblastoma cells, dose response (AID 2458).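 Note: H4 neuroglioblastoma cells stably carrying a luciferase reporter gene fusion.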 The class given is functional, cell-based.
Assay [18] is described as follows: cells. The class given is functional, cell-based.
Assay [19] is described as follows: alpha-synuclein stem-loop translation blockers – luminescence, H4 neuroglioblastoma cells, dose confirmation, confirmation (AID 2454).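 Note: H4 neuroglioblastoma cells carrying an alpha-synuclein 5'UTR luciferase reporter; potency for inhibition of the luciferase signal.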 The class given is functional, cell-based.
Assay [20] in a line: Luminescence Cell-Based Dose Confirmation HTS to Identify Inhibitors of Platelet Dense Granule Release. [Related pubchem assays: 1663 (Primary HTS), 1678 (Summary of Project)]. The class given is functional.
Assay [21] concerns the target T3, Luciferin 4-monooxygenase. Kind of assay: inhibition of purified Photinus pyralis luciferase – biochemical, luminescence, dose response (AID 1891).
A short description of assay [22]: luciferase reporter signal suppression in cells – H4 neuroglioma cells, luminescence, dose response (AID 1990). Type of assay: functional, cell-based.
Another assay deals with H9c2. The assay can be described thus: cells. The class given is functional, cell-based. To be noted: Rattus norvegicus, H9c2, Myocardium.
In assay [23] the target is Polyadenylate-binding protein 1 (Homo sapiens, UniProt P11940). Kind of assay: blockers of PABP interaction with poly(A) – biochemical, fluorescence polarization, […] (AID 2014).
Chain of Polyadenylate-binding protein 1 (P11940 whole entry): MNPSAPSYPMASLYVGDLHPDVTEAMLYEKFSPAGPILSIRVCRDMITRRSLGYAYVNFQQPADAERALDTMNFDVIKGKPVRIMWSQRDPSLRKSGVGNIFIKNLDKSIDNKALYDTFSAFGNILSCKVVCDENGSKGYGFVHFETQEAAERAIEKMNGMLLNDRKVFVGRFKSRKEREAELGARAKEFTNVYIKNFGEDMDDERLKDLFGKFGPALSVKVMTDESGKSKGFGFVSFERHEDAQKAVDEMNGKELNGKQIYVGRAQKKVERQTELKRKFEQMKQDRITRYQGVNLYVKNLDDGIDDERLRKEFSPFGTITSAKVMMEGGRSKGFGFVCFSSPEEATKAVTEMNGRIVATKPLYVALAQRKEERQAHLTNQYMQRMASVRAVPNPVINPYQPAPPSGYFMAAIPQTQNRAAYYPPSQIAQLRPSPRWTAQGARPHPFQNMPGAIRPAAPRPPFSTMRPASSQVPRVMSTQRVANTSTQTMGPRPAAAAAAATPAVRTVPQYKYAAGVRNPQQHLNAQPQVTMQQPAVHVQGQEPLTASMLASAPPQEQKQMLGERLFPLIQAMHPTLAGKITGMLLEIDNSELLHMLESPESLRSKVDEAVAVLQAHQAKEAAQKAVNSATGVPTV
Assay [24] concerns the target Eukaryotic translation initiation factor 4H (Homo sapiens, UniProt Q15056). Kind of assay: eIF4H binding inhibition – biochemical, uHTS, fluorescence polarization, translation initiation inhibitor project, primary screen (AID 2012).
For another assay, the target named is Protein Rev (Human immunodeficiency virus type 1 group M subtype B (isolate WMJ22)(HIV-1), UniProt P05866). Kind of assay: inhibitors of Rev protein–RRE RNA complex – biochemical, protein-RNA interaction, dose response (AID 842). Set-up: species or system Human immunodeficiency virus 1.
Chain of Protein Rev (P05866 whole entry): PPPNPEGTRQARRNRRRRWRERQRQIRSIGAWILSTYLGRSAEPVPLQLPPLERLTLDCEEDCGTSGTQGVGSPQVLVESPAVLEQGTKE
Another assay deals with INS1. Kind of assay: INS-1E survival protection against cytokine death – cell-based, luminescence, retest, dose response (AID 449756).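 Note: cell death triggered by IL-1 beta plus TNF-alpha plus IFN-gamma mixture; protective hits raise ATP signal compared with cytokine alone wells.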 The class given is functional. To be noted: Rattus norvegicus.
Assay [25] has as its target FAD-linked sulfhydryl oxidase ALR (Homo sapiens, UniProt P55789). The assay can be described thus: ALR-catalysed DTT oxidation blockers – biochemical, H2O2 detection, luminescence, cherry-pick, dose response (AID 493248).
A short description of assay [26]: MIN6 cell viability loss – mouse insulinoma, cytotoxicity control, dose response (AID 2122).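 Note: confirmatory high-throughput counterscreen run to flag cytotoxic compounds.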 The class given is functional.
Assay [27] can be described thus: decrease of insulin promoter-GFP reporter – imaging, high-content screening, mouse beta cells (AID 1628). Type of assay: functional. To be noted: MIN6.

Activity calls are given as the source filed them.

T2 sequence (P0DMV8 whole entry): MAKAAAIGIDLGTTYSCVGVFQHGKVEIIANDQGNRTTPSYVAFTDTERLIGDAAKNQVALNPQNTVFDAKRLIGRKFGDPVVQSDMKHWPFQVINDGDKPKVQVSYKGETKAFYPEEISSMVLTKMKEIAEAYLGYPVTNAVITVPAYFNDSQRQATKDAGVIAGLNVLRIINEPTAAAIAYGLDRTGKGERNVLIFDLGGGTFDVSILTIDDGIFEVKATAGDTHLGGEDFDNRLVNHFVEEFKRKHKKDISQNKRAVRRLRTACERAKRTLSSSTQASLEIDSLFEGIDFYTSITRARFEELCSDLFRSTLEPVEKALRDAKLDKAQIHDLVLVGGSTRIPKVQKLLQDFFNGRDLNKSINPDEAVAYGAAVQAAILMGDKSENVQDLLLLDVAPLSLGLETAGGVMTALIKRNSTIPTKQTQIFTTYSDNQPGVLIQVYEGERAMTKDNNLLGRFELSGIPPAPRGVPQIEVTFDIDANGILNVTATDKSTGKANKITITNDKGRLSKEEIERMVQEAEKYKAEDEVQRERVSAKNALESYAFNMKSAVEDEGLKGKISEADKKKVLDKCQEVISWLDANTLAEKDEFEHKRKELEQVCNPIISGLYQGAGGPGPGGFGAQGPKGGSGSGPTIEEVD
Chain of Acyl-homoserine lactone acylase PvdQ (Q9I194 24-193 limits assumed): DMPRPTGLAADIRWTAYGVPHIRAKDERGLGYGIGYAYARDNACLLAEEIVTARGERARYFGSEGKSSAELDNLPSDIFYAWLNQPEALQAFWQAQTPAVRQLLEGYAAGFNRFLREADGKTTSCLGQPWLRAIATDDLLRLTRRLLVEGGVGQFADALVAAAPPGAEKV
Chain of Acyl-homoserine lactone acylase PvdQ (Q9I194 217-762 limits assumed): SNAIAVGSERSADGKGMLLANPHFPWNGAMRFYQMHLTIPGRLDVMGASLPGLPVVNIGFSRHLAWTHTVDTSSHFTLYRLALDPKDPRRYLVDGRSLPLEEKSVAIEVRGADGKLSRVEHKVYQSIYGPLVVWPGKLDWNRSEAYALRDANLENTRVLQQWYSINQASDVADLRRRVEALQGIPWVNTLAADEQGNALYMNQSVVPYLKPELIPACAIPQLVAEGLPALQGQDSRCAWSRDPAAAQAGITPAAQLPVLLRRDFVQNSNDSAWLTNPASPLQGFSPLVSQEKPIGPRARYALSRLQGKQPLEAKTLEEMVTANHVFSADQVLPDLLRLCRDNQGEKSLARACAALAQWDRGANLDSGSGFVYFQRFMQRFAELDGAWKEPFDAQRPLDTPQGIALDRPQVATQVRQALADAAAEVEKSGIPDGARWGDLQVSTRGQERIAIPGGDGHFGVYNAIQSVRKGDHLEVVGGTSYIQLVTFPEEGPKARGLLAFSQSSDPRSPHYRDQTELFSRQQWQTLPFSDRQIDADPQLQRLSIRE
Chain of FAD-linked sulfhydryl oxidase ALR (P55789 whole entry): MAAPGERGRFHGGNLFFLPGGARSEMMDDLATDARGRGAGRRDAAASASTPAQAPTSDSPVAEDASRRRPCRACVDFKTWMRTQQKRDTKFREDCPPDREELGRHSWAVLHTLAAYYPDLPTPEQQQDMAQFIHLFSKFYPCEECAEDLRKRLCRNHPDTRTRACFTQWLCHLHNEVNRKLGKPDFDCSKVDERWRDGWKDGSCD

For the molecule `O=c1cccc2n1CC1CC2CN(Cc2cccc(Cl)c2Cl)C1` (configuration not stated), the CC50 in assay [1] was 23.1 µM (active). Further, in assay [2], the EC50 is recorded as > 50 µM (not active).
`O=C(c1cnccn1)N(Cc1cccs1)C1(C(=O)NC2CCCC2)CCCCC1`: the half-inhibitory concentration (IC50) in [3] and in assay [4] was > 43.8 µM (not active) in each case.
`CCOC(=O)CNC(=O)CNC(=O)Cn1ccc2ccccc2c1=O`: the IC50 in assay [5] and in assay [6] was > 100 µM (not active) throughout.
As for `CCOC(=O)c1[nH]c2ccc(OC)cc2c1NS(=O)(=O)c1ccc(OC)cc1OC`, the IC50 in [3] and in assay [4] was > 43.8 µM (not active) each time.
`Cc1cnc(NC(=O)C2COc3ccccc3O2)s1` (configuration not stated): the EC50 in the assay on HT-1080 was > 50 µM (not active); in assay [7] it was 1.95 µM (active).
`Nc1ccc(C(=O)OCc2nc3cc4ccccc4cc3[nH]2)cc1`: the IC50 in the assay “cells [8]” was 23.6 µM (active); in the assay on Vero it was 3.67 µM (active). For the same molecule, the half-maximal cytotoxic concentration (CC50) in assay [1] was 36.6 µM (active).
In the case of `Cc1csc(NC(=O)C2COc3ccccc3O2)n1` (configuration not stated), the EC50 with HT-1080 is > 50 µM (not active); in [7], 0.56 µM (active); in assay [9], 7.32 µM (active); in assay [10] it was 10.7 µM (inconclusive).
Turning to `CC1Cn2c(nnc2C23CC4CC(CC(C4)C2)C3)S1` (configuration not stated), the IC50 in [11] was > 100 µM (inactive).
Turning to `CSc1nnc(-c2ccc([N+](=O)[O-])cc2)o1`, the AC50 in assay [12] was 6.96 µM (active).
For `CCn1nccc1C(=O)Nc1ccc(Cl)cn1`, the IC50 in assay [5] and in [6] was > 100 µM (not active) in each case.
As for `CC(=O)NNC(=S)NC(=O)c1cccc([N+](=O)[O-])c1`, the figures for the concentration for half-maximal inhibition (IC50) (in [13]; at Leucine aminopeptidase) were > 50 µM (not active) and 45.8 µM (active), respectively.
`COc1ccc(OC)c(C2CC(c3c(O)nc4ccc(Cl)cc4c3-c3ccccc3)=NN2S(C)(=O)=O)c1` (configuration not stated): the EC50 is 9.08 µM (active) in assay [14] and 11.3 µM (active) in assay [15]. The CC50 in [16] was > 40 µM (active).
With `CCN(CC)c1ccc(C2=NNC(=O)CC2C)cc1[N+](=O)[O-]` (configuration not stated), the EC50 in [17] was 0.05 µM (active); in the assay “cells [18]” it was 0.194 µM (active); in assay [19], 0.123 µM (active); in [20] it was 0.504 µM (active); in assay [21], > 112 µM (not active); in assay [9], < 0.1 µM (active). For the same molecule, the EC50 in assay [22] was < 0.1 µM (active).
As for `N#CC(c1ccc(Cl)cc1)c1ncc(C(F)(F)F)cc1Cl` (configuration not stated), the half-maximal activity concentration (AC50) in assay [12] is 0.939 µM (active).
Turning to `Cc1ccc(/C=N\NC(=O)C2CN(S(=O)(=O)c3ccccc3)CCN2S(=O)(=O)c2ccccc2)cc1` (configuration not stated), the IC50 in the assay “cells [8]” is 13.6 µM (active).
Regarding `COc1ccccc1N1C(=O)CC(Sc2n[nH]c(-c3cccc(C)c3)n2)C1=O` (configuration not stated), the IC50 in assay [13] is 48.1 µM (active).
On to `CN(CC1COc2ccccc2O1)c1nc(-c2cccnc2)nc2ccccc12` (configuration not stated), for which, in assay [2], the EC50 was 2.65 µM (active). Besides, the IC50 in the assay with H9c2 was 24.4 µM (active).
As to `CCC(=O)N1c2ccc(S(=O)(=O)NCc3ccco3)cc2CC1C` (configuration not stated), the values for the IC50 in assay [23] and in [24] were 24.1 µM (active) and 10.2 µM (active), respectively.
For `O=C(CN1CCN(S(=O)(=O)/C=C/c2ccccc2)CC1)NC(=O)NCc1ccco1`, in that order: > 100 µM (inactive) and 13.1 µM (active).
`C[n+]1c2n(c3ccccc31)N=C(c1ccc(Cl)cc1)CS2`: the half-inhibitory concentration (IC50) against Protein Rev is > 79.4 µM (not active); in assay [26], 1.49 µM (active); in [27], 2.51 µM (active). The values for the concentration at half-maximal activity (AC50) (with INS1; in [25]) were 4.54 µM (active) and 0.425 µM (active), respectively.

One may read the CC50 as the concentration giving 50% cytotoxicity. As usually defined, the EC50 is the concentration needed to bring the measured effect to its halfway point. As a reminder, the IC50 is the concentration at which inhibition is half-maximal. In general, AC50 refers to the concentration giving half of the maximal activity seen.

For the origin of these results see ChEMBL document CHEMBL1201862, “PubChem BioAssay data set” (2004).
